What is called IC50 is the concentration that inhibits the measured activity by half. A high value points to lower potency.

Structures are written as SMILES.

The target in this test is T1, Androgen Receptor (AR) in the LNCaP prostate carcinoma cell line (Homo sapiens, UniProt P10275, T878A).
T1 construct: cell based immuno-fluorescence assay using the LNCaP prostate epithelial cell line; host or cells: LNCaP clone FGC
T1 sequence (P10275 1-920 T878A): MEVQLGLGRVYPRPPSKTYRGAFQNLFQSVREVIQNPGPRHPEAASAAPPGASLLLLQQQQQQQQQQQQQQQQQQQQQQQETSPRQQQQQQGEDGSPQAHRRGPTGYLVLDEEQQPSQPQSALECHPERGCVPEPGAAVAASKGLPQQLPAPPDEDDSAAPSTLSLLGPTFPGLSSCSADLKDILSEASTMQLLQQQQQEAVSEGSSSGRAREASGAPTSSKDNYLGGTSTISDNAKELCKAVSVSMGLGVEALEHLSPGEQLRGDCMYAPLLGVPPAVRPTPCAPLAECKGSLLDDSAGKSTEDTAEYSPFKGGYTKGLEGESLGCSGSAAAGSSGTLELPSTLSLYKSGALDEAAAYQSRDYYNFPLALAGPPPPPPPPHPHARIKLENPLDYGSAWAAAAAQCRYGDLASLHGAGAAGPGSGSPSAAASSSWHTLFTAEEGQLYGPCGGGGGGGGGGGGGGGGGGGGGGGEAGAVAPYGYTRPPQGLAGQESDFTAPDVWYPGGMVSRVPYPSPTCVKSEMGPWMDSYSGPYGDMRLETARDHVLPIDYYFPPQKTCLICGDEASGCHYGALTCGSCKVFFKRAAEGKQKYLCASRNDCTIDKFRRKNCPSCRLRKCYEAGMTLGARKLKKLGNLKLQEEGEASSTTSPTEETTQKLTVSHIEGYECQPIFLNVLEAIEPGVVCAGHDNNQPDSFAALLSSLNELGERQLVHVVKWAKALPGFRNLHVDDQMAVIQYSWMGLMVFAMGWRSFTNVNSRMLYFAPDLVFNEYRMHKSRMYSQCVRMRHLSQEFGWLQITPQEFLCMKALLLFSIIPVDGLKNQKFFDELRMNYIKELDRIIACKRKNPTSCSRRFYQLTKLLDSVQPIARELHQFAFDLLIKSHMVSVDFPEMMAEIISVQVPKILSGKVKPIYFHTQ
Kind of test: LNCaP Androgen Receptor Down-Regulation Cell Assay (immunofluorescence end point). In kind it is cell-based. Particulars: LNCaP cells, compound incubation 20-22 hours, concentration giving 50% reduction of the AR signal. As for the experimental part:
The ability of compounds to reduce Androgen Receptor (AR) numbers was assessed in a cell based immuno-fluorescence assay using the LNCaP prostate epithelial cell line.
This immunofluorescence end point assay measures the ability of a test compound to down-regulate and reduce measured levels of the AR in the LNCaP prostate carcinoma cell line (LNCaP clone FGC (CRL-1740) obtained from the American Type Culture Collection (ATCC)).
LNCaP cells were cultured in Growth Medium (phenol red free Roswell Park Memorial Institute (RPMI) 1640 (Invitrogen Code no. 11835-063) containing 2 mM L-Glutamine (Invitrogen Code no. 25030-024) and 1% (v/v) Penicillin/Streptomycin (10000 units/ml Penicillin and 10000 μg/ml of Streptomycin utilising penicillin G (sodium salt) and streptomycin sulphate: prepared in normal saline, Invitrogen Code no. 15140122) and 10% (v/v) foetal bovine serum (FBS)) in a 5% CO2 air incubator at 37° C. Cells for assay were harvested from T175 stock flasks by washing once in PBS (phosphate buffered saline, pH 7.4) (Invitrogen Code no. 14190-094) and harvested using 5 mls of 1× Trypsin/ethylaminediaminetetraacetic acid (EDTA) (10× Trypsin-EDTA, 5.0 g/L Trypsin, 2.0 g/L of EDTA.4Na and 8.5 g/L of NaCl, without Phenol Red, Invitrogen Code no. 15400-054) diluted in PBS solution. A 5 ml volume of Growth Medium was added to each flask (as above except that 5% (v/v) charcoal stripped FBS (HyClone Code no. SH30068.03) was included instead of 10% (v/v) FBS). Cells were syringed at least twice using a sterile 18 G×1.5″ (1.2×40 mm) broad gauge needle and cell density was measured using a haemocytometer. Cells were further diluted in Growth Medium plus 5% (v/v) charcoal stripped FBS and seeded at a density of 6.5×10^3 cells per well (in 90 ul) into transparent, black, tissue culture treated 96 well plates (Packard, No. 6005182).
Test data reported herein was generated using two different compounds preparation and dosing methods. In method (1) a 10 mM compound stock solution in 100% (v/v) DMSO was serially diluted in 4-fold steps in 100% (v/v) DMSO using a Thermo Scientific Matrix SerialMate. The diluted compounds were then further diluted 1 in 30 in assay media using a Thermo Scientific Matrix PlateMate and a 10 μl aliquot of this dilution was dosed to cells manually using a multi-channel pipette. In method (2) starting with a 10 mM compound stock solution, the Labcyte Echo 550 was used to generate a compound concentration response set diluted in 30 μl of assay media. The Echo 550 is a liquid handler that uses acoustic technology to perform direct microplate-to-microplate transfers of DMSO compound solutions. The system can be programmed to transfer volumes as low as 2.5 nL in multiple increments between microplates and in so doing generates a serial dilution of compound which is then back-filled to normalise the DMSO concentration across the dilution range. A 10 μl volume of diluted compound is then dosed to cells using a Thermo Scientific Matrix PlateMate.
Plates were incubated overnight at 37° C., 5% CO2. Wells were then dosed with compound prepared by one of the 2 methods above and further incubated for 20-22 hours at 37° C., 5% CO2. Plates were fixed by the addition of 20 μl of 10% (v/v) formaldehyde solution (in PBS) to each well (final formaldehyde conc.=1.67% (v/v)) and left at room temperature for 10 mins. This fixative solution was removed and cells were washed with 250 μl of PBS/0.05% (v/v) Tween 20 (PBST) using an automated plate washer. This process was then repeated twice more.
Immunostaining was performed at room temperature. Cells were permeabilised by the addition of 35 μl of PBS containing 0.5% Tween 20 and incubated for 1 hour at room temperature. Permeabilisation solution was removed and cells were washed with 250 μl of PBST using an automated plate washer. This process was then repeated twice more. […]
In turn, `Cn1nccc1CCOc1ccc(C2(O)CCN(C3=Nn4c(nnc4C(F)(F)F)CC3)CC2)cc1` [Example 36, 4-{4-[2-(1-methyl-1H-pyrazol-5-yl)ethoxy]phenyl}-1-[3-(trifluoromethyl)-7,8-dihydro[1,2,4]triazolo[4,3-b]pyridazin-6-yl]piperidin-4-ol] displayed an IC50 of 4.5 µM.

Compound `CCc1nccn1CCOc1ccc(N2CCN(C3=Nn4c(nnc4C(F)(F)F)CC3)CC2)cc1` [Example 39, 6-(4-{4-[2-(2-ethyl-1H-imidazol-1-yl)ethoxy]phenyl}piperazin-1-yl)-3-(trifluoromethyl)-7,8-dihydro[1,2,4]triazolo[4,3-b]pyridazine] returned a half-inhibitory concentration (IC50) of 4.8 µM.

In turn, `FC(F)(F)c1ccn(CCOc2ccc(N3CCN(C4=Nn5c(nnc5C(F)(F)F)CC4)CC3)cc2)n1` [Example 40, 3-(trifluoromethyl)-6-[4-(4-{2-[3-(trifluoromethyl)-1H-pyrazol-1-yl]ethoxy}phenyl)piperazin-1-yl]-7,8-dihydro[1,2,4]triazolo[4,3-b]pyridazine] had an IC50 of 1.5 µM.

`CCc1nccn1CCOc1ccc(C2CCN(C3=Nn4c(nnc4C(F)(F)F)CC3)CC2)cc1` [Example 42, 6-(4-{4-[2-(2-ethyl-1H-imidazol-1-yl)ethoxy]phenyl}piperidin-1-yl)-3-(trifluormethyl)-7,8-dihydro[1,2,4]triazolo[4,3-b]pyridazine] displayed a 50% inhibitory concentration (IC50) of 0.66 µM.

For the compound `Cc1cc(C)n(CCOc2ccc(C3CCN(C4=Nn5c(nnc5C(F)(F)F)CC4)CC3)cc2)n1` [Example 43, 6-(4-{4-[2-(3,5-dimethyl-1H-pyrazol-1-yl)ethoxy]phenyl}piperidin-1-yl)-3-(trifluoromethyl)-7,8-dihydro[1,2,4]triazolo[4,3-b]pyridazine], the 50% inhibitory concentration (IC50) amounted to 1 µM.

As to `FC(F)(F)c1ccn(CCOc2ccc(C3CCN(C4=Nn5c(nnc5C(F)(F)F)CC4)CC3)cc2)n1` [Example 44, 3-(trifluoromethyl)-6-[4-(4-{2-[3-(trifluoromethyl)-1H-pyrazol-1-yl]ethoxy}phenyl)piperidin-1-yl]-7,8-dihydro[1,2,4]triazolo[4,3-b]pyridazine], the concentration for half-maximal inhibition (IC50) was found to be 0.55 µM.

In turn, `CC(=O)N1CCN(CCOc2ccc(C3(O)CCN(C4=Nn5c(nnc5C(F)(F)F)CC4)CC3)cc2)CC1` [Example 45, 4-{4-[2-(4-acetylpiperazin-1-yl)ethoxy]phenyl}-1-[3-(trifluoromethyl)-7,8-dihydro[1,2,4]triazolo[4,3-b]pyridazin-6-yl]piperidin-4-ol] returned a half-inhibitory concentration (IC50) of 12 µM.

`CCN1CCN(CCOc2ccc(C3CCN(C4=Nn5c(nnc5C(F)(F)F)CC4)CC3)cc2)CC1=O` [Example 46, 1-ethyl-4-[2-(4-{1-[3-(trifluoromethyl)-7,8-dihydro[1,2,4]triazolo[4,3-b]pyridazin-6-yl]piperidin-4-yl}phenoxy)ethyl]piperazin-2-one] had a half-inhibitory concentration (IC50) of 1.5 µM.

Turning to `O=C1CN(CCOc2ccc(C3CCN(C4=Nn5c(nnc5C(F)(F)F)CC4)CC3)cc2)CCN1C1CC1` [Example 47, 1-cyclopropyl-4-[2-(4-{1-[3-(trifluoromethyl)-7,8-dihydro[1,2,4]triazolo[4,3-b]pyridazin-6-yl]piperidin-4-yl}phenoxy)ethyl]piperazin-2-one], 1.4 µM corresponded to half-maximal inhibition (IC50).

Compound `CC(=O)N1CCCN(CCOc2ccc(C3CCN(C4=Nn5c(nnc5C(F)(F)F)CC4)CC3)cc2)CC1` [Example 48, 6-(4-{4-[2-(4-acetyl-1,4-diazepan-1-yl)ethoxy]phenyl}piperidin-1-yl)-3-(trifluoromethyl)-7,8-dihydro[1,2,4]triazolo[4,3-b]pyridazine] showed an IC50 of 0.7 µM.

`C[C@@H]1C(=O)N(C)CCN1CCOc1ccc(C2CCN(C3=Nn4c(nnc4C(F)(F)F)CC3)CC2)cc1` [Example 49, (3R)-1,3-dimethyl-4-[2-(4-{1-[3-(trifluoromethyl)-7,8-dihydro[1,2,4]triazolo[4,3-b]pyridazin-6-yl]piperidin-4-yl}phenoxy)ethyl]piperazin-2-one] yielded a half-maximal inhibitory concentration (IC50) of 0.045 µM.

`C[C@H]1C(=O)N(C)CCN1CCOc1ccc(C2CCN(C3=Nn4c(nnc4C(F)(F)F)CC3)CC2)cc1` [Example 50, (3S)-1,3-dimethyl-4-[2-(4-{1-[3-(trifluoromethyl)-7,8-dihydro[1,2,4]triazolo[4,3-b]pyridazin-6-yl]piperidin-4-yl}phenoxy)ethyl]piperazin-2-one] came in with a half-inhibitory concentration (IC50) of 0.76 µM.

Regarding `CC(=O)N1CCN(CCOc2ccc(C3CCN(C4=Nn5c(nnc5C(F)(F)F)CC4)CC3)cc2)C[C@@H]1C` [Example 52, 6-[4-(4-{2-[(3S)-4-acetyl-3-methylpiperazin-1-yl]ethoxy}phenyl)piperidin-1-yl]-3-(trifluoromethyl)-7,8-dihydro[1,2,4]triazolo[4,3-b]pyridazine], 0.32 µM corresponded to half-maximal inhibition (IC50).

For the origin of these results see US8258140B2 (Astrazeneca AB, priority 2009, dated 2012).
